Experimental data as given in patent US9067943B2, “[1,2,3]triazolo[4,5-D]pyrimidine derivatives” (priority 2011, dated 2015).
Read-outs that look alike come from different tables or passages of the source.

Assays:
[1] = biological target: T1, human CB2 receptors (Homo sapiens, UniProt P34972); experiment: cAMP assay; format: cell-based
T1 construct: expressed in transfected cells; host or cells: CHO cells
In short: (§1)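 CHO cells expressing human CB1 or CB2 were preincubated 30 min at 30 °C in Krebs Ringer bicarbonate buffer with 1 mM IBMX, then exposed to compounds for 30 min at 30 °C. cAMP was measured by time-resolved FRET against a cAMP standard curve, and EC50 values were derived.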

[2] = biological target: T2, human CB1 receptors (Homo sapiens, UniProt P21554); experiment: cAMP assay; format: cell-based
T2 construct: expressed in transfected cells; host or cells: CHO cells
In short: as §1

[3] = functional cAMP assay, CHO cells expressing human CB2, read-out: human CB2 EC50

T1 sequence (P34972 whole entry): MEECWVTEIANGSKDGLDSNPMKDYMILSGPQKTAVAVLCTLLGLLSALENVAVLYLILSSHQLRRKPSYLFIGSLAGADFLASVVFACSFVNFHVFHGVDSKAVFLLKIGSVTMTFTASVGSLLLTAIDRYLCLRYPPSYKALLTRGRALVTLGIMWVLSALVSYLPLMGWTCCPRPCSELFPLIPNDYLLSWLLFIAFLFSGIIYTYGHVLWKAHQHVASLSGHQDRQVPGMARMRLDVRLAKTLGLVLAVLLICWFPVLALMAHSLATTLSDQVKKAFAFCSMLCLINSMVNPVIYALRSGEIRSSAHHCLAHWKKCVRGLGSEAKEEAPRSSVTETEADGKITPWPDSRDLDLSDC
T2 sequence (P21554 whole entry): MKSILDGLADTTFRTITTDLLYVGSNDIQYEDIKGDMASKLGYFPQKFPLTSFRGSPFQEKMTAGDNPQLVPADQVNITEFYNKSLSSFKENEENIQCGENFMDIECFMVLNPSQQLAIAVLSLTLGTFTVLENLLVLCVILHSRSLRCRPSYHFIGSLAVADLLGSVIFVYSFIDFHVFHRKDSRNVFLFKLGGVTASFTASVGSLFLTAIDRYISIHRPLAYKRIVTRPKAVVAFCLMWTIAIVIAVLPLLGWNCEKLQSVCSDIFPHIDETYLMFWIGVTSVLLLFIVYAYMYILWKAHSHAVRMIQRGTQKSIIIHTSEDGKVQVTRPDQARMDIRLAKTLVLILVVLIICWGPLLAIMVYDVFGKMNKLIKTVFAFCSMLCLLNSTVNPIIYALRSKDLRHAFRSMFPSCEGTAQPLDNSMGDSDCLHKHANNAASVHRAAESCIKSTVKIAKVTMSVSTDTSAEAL

Question: Which results are given for `CC(C)(C)c1nc(N2CCC(F)(F)C2)c2nn(Cc3ccncc3)nc2n1` [Example 17, 5-tert-Butyl-7-(3,3-difluoro-pyrrolidin-1-yl)-2-pyridin-4-ylmethyl-2H-[1,2,3]triazolo[4,5-d]pyrimidine]?
Answer: EC50 [1]: 0.8 nM; EC50 [2]: > 10000 nM

Question: Which results are given for `Cn1c(Cn2nc3nc(C(C)(C)C)nc(N4CCC(F)(F)C4)c3n2)nnc1S(C)(=O)=O` [Example 70, 5-tert-Butyl-7-(3,3-difluoro-pyrrolidin-1-yl)-2-(5-methanesulfonyl-4-methyl-4H-[1,2,4]triazol-3-ylmethyl)-2H-[1,2,3]triazolo[4,5-d]pyrimidine]?
Answer: EC50 [1]: 33.6 nM; EC50 [2]: > 10000 nM

Question: For `Cc1nonc1Cn1nc2nc(C(C)(C)C)nc(N3CC[C@H](O)C3)c2n1` [Example 73, (S)-1-[5-tert-Butyl-2-(4-methyl-furazan-3-ylmethyl)-2H-[1,2,3]triazolo[4,5-d]pyrimidin-7-yl]-pyrrolidin-3-ol], which EC50 [1] is on record?
Answer: 7.1 nM

Question: And the EC50 [2]?
Answer: > 10000 nM

Question: Which results are given for `Cn1nnnc1Cn1nc2nc(C(C)(C)C)nc(N3CC[C@@](C)(O)C3)c2n1` [Example 130-b, (R)-1-[5-tert-Butyl-2-(1-methyl-1H-tetrazol-5-ylmethyl)-2H-[1,2,3]triazolo[4,5-d]pyrimidin-7-yl]-3-methyl-pyrrolidin-3-ol]?
Answer: EC50 [1, 3]: 798 nM; EC50 [2]: > 10000 nM

Question: How did the EC50 [1] turn out when `Cc1nnc(Cn2nc3nc(C(C)(C)C)nc(N4CC[C@](C)(O)C4)c3n2)o1` [Example 128-a, (S)-1-[5-tert-Butyl-2-(5-methyl-[1,3,4]oxadiazol-2-ylmethyl)-2H-[1,2,3]triazolo[4,5-d]pyrimidin-7-yl]-3-methyl-pyrrolidin-3-ol] was run?
Answer: 70.2 nM

Question: What about the EC50 [2] of the same compound?
Answer: > 10000 nM

Question: What does the source list for `Cc1nc(Cn2nc3nc(C(C)(C)C)nc(N4CC[C@H](O)C4)c3n2)no1` [Example 86, (S)-1-[5-tert-Butyl-2-(5-methyl-[1,2,4]oxadiazol-3-ylmethyl)-2H-[1,2,3]triazolo[4,5-d]pyrimidin-7-yl]-pyrrolidin-3-ol]?
Answer: EC50 [1]: 52.2 nM; EC50 [2]: > 10000 nM

Question: For `CC(C)(C)c1nc(N2CC[C@@](C)(O)C2)c2nn(Cc3ncccc3Cl)nc2n1` [Example 127-b, (R)-1-[5-tert-Butyl-2-(3-chloro-pyridin-2-ylmethyl)-2H-[1,2,3]triazolo[4,5-d]pyrimidin-7-yl]-3-methyl-pyrrolidin-3-ol], which EC50 [1] is on record?
Answer: 11.9 nM

Question: What about the EC50 [2] of the same compound?
Answer: 609 nM

Question: Which results are given for `CC(C)(C)c1nc(N2CCC(F)(F)C2)c2nn(Cc3c(Cl)cccc3Cl)nc2n1` [Example 12, 5-tert-Butyl-2-(2,6-dichloro-benzyl)-7-(3,3-difluoro-pyrrolidin-1-yl)-2H-[1,2,3]triazolo[4,5-d]pyrimidine]?
Answer: EC50 [1]: 1.5 nM; EC50 [2]: > 10000 nM

Question: For `Cn1nnnc1Cn1nc2nc(NC(C)(C)C)nc(N3CCC(F)(F)C3)c2n1` [Example 139, tert-Butyl-[7-(3,3-difluoro-pyrrolidin-1-yl)-2-(1-methyl-1H-tetrazol-5-ylmethyl)-2H-[1,2,3]triazolo[4,5-d]pyrimidin-5-yl]-amine], which EC50 [1] is on record?
Answer: 28.1 nM

Question: And the EC50 [2]?
Answer: > 10000 nM

Question: For `CC(C)(C)c1nc(N2CCC(F)(F)C2)c2nn(C3CCS(=O)(=O)C3)nc2n1` (centres unmarked) [Example 63, 5-tert-Butyl-7-(3,3-difluoro-pyrrolidin-1-yl)-2-(1,1-dioxo-tetrahydro-1λ6-thiophen-3-yl)-2H-[1,2,3]triazolo[4,5-d]pyrimidine], which EC50 [1] is on record?
Answer: 4 nM

Question: And the EC50 [2]?
Answer: > 10000 nM

Question: Which results are given for `CC(C)(C)c1nc(N2CCC(F)(F)C2)c2nn(Cc3ccccc3C(F)(F)F)nc2n1` [Example 22, 5-tert-Butyl-7-(3,3-difluoro-pyrrolidin-1-yl)-2-(2-trifluoromethyl-benzyl)-2H-[1,2,3]triazolo[4,5-d]pyrimidine]?
Answer: EC50 [1]: 0.2 nM; EC50 [2]: > 10000 nM

Question: For `CC(C)(C)c1nc(N2CCC(F)(F)C2)c2nn(Cc3ccccc3OC(F)(F)F)nc2n1` [Example 24, 5-tert-Butyl-7-(3,3-difluoro-pyrrolidin-1-yl)-2-(2-trifluoromethoxy-benzyl)-2H-[1,2,3]triazolo[4,5-d]pyrimidine], which EC50 [1] is on record?
Answer: 0.4 nM

Question: And the EC50 [2]?
Answer: > 10000 nM

Question: With `Cc1nonc1Cn1nc2nc(C(C)(C)C)nc(N3CC(F)(F)C(F)(F)C3)c2n1` [Example 99, 5-tert-Butyl-2-(4-methyl-furazan-3-ylmethyl)-7-(3,3,4,4-tetrafluoro-pyrrolidin-1-yl)-2H-[1,2,3]triazolo[4,5-d]pyrimidine] as the compound, how does the EC50 [1] read?
Answer: 0.9 nM

Question: And the EC50 [2]?
Answer: > 10000 nM

Question: For `O[C@H]1CCN(c2nc(OCC(F)(F)F)nc3nn(Cc4ccccc4Cl)nc23)C1` [Example 109, (S)-1-[2-(2-Chloro-benzyl)-5-(2,2,2-trifluoro-ethoxy)-2H-[1,2,3]triazolo[4,5-d]pyrimidin-7-yl]-pyrrolidin-3-ol], which EC50 [1, 3] is on record?
Answer: 107 nM

Question: And the EC50 [2]?
Answer: > 10000 nM

Question: Which EC50 [1] does the source give for `CC(C)(C)c1nc(N2CC[C@H](O)C2)c2nn(Cc3ncccc3Cl)nc2n1` [Example 75, (S)-1-[5-tert-Butyl-2-(3-chloro-pyridin-2-ylmethyl)-2H-[1,2,3]triazolo[4,5-d]pyrimidin-7-yl]-pyrrolidin-3-ol] here?
Answer: 4.6 nM

Question: What about the EC50 [2] of the same compound?
Answer: > 10000 nM

Question: Which EC50 [1] does the source give for `CC(C)(C)Nc1nc(N2CCC(F)(F)C2)c2nn(Cc3ncccc3Cl)nc2n1` [Example 138, tert-Butyl-[2-(3-chloro-pyridin-2-ylmethyl)-7-(3,3-difluoro-pyrrolidin-1-yl)-2H-[1,2,3]triazolo[4,5-d]pyrimidin-5-yl]-amine] here?
Answer: 54 nM

Question: What about the EC50 [2] of the same compound?
Answer: > 10000 nM

Question: `Cn1ncnc1Cn1nc2nc(C(C)(C)C)nc(N3CCC(F)(F)C3)c2n1` [Example 69, 5-tert-Butyl-7-(3,3-difluoro-pyrrolidin-1-yl)-2-(2-methyl-2H-[1,2,4]triazol-3-ylmethyl)-2H-[1,2,3]triazolo[4,5-d]pyrimidine] was tested. Which EC50 [1] did it give?
Answer: 1.1 nM

Question: What about the EC50 [2] of the same compound?
Answer: > 10000 nM

Question: Which results are given for `CC(C)(C)c1nc(N2CCC(F)(F)C2)c2nn(Cc3nc(Cl)ccc3Cl)nc2n1` [Example 38, 5-tert-Butyl-2-(3,6-dichloro-pyridin-2-ylmethyl)-7-(3,3-difluoro-pyrrolidin-1-yl)-2H-[1,2,3]triazolo[4,5-d]pyrimidine]?
Answer: EC50 [1]: 1.1 nM; EC50 [2]: 98.6 nM

Question: `CC(C)(C)c1nc(N2CCC(F)(F)C2)c2nn(Cc3c(Cl)ccc(Cl)c3Cl)nc2n1` [Example 55, 5-tert-Butyl-7-(3,3-difluoro-pyrrolidin-1-yl)-2-(2,3,6-trichloro-benzyl)-2H-[1,2,3]triazolo[4,5-d]pyrimidine] was tested. Which EC50 [1] did it give?
Answer: 8.7 nM

Question: And the EC50 [2]?
Answer: > 10000 nM

Question: Which results are given for `CC(C)(C)c1nc(N2CC[C@](C)(O)C2)c2nn(Cc3ncccc3Cl)nc2n1` [Example 127-a, (S)-1-[5-tert-Butyl-2-(3-chloro-pyridin-2-ylmethyl)-2H-[1,2,3]triazolo[4,5-d]pyrimidin-7-yl]-3-methyl-pyrrolidin-3-ol]?
Answer: EC50 [1]: 5.1 nM; EC50 [2]: 757 nM

Question: `CC(C)(C)c1nc(N2CC[C@H](O)C2)c2nn(Cc3ccccc3C(F)(F)F)nc2n1` [Example 79, (S)-1-[5-tert-Butyl-2-(2-trifluoromethyl-benzyl)-2H-[1,2,3]triazolo[4,5-d]pyrimidin-7-yl]-pyrrolidin-3-ol] was tested. Which EC50 [1] did it give?
Answer: 0.4 nM

Question: And the EC50 [2]?
Answer: > 10000 nM

Question: Which EC50 [1] does the source give for `Cc1nnc(Cn2nc3nc(C(C)(C)C)nc(N4CC(F)(F)C(F)(F)C4)c3n2)o1` [Example 101, 5-tert-Butyl-2-(5-methyl-[1,3,4]oxadiazol-2-ylmethyl)-7-(3,3,4,4-tetrafluoro-pyrrolidin-1-yl)-2H-[1,2,3]triazolo[4,5-d]pyrimidine] here?
Answer: 15.7 nM

Question: And the EC50 [2]?
Answer: > 10000 nM
